The subject of data set [1] is MSTN. In kind it is cell-based. Particulars: HepG2, (SBE)4-luc; MSTN 10 ng/ml, 8 h; MID-35 3 μM or SB-431542 10 μM, 1 h pretreatment; n = 3.
For a further data set, the system named is TGF‐β. It counts as cell-based. Particulars: HepG2, (SBE)4-luc; TGF-β 5 ng/ml, 8 h; MID-35 3 μM or SB-431542 10 μM, 1 h pretreatment; n = 3.
The subject of the next data set is GDF‐11. It counts as cell-based. To be noted: HepG2, (SBE)4-luc; GDF-11 10 ng/ml, 8 h; MID-35 3 μM or SB-431542 10 μM, 1 h pretreatment; n = 3.
Data set [2] relates to MSTN. Kind of data set: Smad2/3 nuclear localization induced by MSTN in C2C12 cells. It counts as cell-based. To be noted: MID-35 3 μM or SB-431542 10 μM preincubated 1 h with MSTN 10 ng/ml.
In the next data set the test system is ALK4. Particulars: ref [26]; cited from earlier work.
Another data set deals with ALK7. Particulars: ref [26]; cited from earlier work.
In a further data set the test system is ALK5. Particulars: ref [26]; cited from earlier work.
Data set [3] relates to cancer cachexia model mice (LLC cells). Kind of data set: LLC cancer cachexia model mice, MID-35 and/or anamorelin. In kind it is in vivo, C57BL/6J mice. To be noted: MID-35 i.m. and/or anamorelin p.o.; 22 days after LLC transplantation; Figure 6B.
The conditions of data set [4]: men who received 100 mg in a clinical trial; ref not given; cited from earlier work.
A further data set relates to cancer cachexia patients. To be noted: cited from earlier work.
Another data set deals with ghrelin receptor. To be noted: ref [8]; cited from earlier work.
A further data set has as its system vascular function. Particulars: via binding to BMP9 and BMP10; ref [36]; cited from earlier work.
Setting [5] is: patients with non-small-cell lung cancer, ref [9], [10], [11].

The values that follow come from publication PMC9530881 (Cancer Science, 2022).

Take `NC(=O)c1ccc(-c2nc(-c3ccc4c(c3)OCO4)c(-c3ccccn3)[nH]2)cc1` [SB‐431542]: the “inhibition of MSTN-induced transcriptional activity” value with MSTN [1] is on record as “suppressed”. In addition, in the data set with TGF‐β, the “inhibition of TGF-β-induced reporter activity” value is given as “suppressed”. For the same molecule, in the data set with GDF‐11, the “inhibition of GDF-11-induced reporter activity” value is recorded as “suppressed”. Besides, the Smad2 nuclear accumulation entry in the data set with MSTN [2] is “completely blocked”. Also, in the data set with ALK4, the ALK4 kinase inhibition result is reported as “known kinase inhibitor”. For the same molecule, the ALK7 kinase inhibition entry with ALK7 is on record as “known kinase inhibitor”. The ALK5 kinase inhibition entry in the data set with ALK5 was “known kinase inhibitor”.
Take `CN(C)N(C)C(=O)[C@@]1(Cc2ccccc2)CCCN(C(=O)[C@@H](Cc2c[nH]c3ccccc23)NC(=O)C(C)(C)N)C1` [anamorelin]: in data set [3], the “gastrocnemius weight per body weight without tumor” value is “increased”. In data set [4], the “plasma Cmax average” value was 707 ± 307 ng/mL. Besides, in the data set with cancer cachexia patients (clinical trial, cancer cachexia patients, ref not given), the lean body mass result was “increased lean body mass”. Further, the appetite result in the data set on cancer cachexia patients (patients with cancer cachexia, oral, ref [8]) was “augments appetite”. In the data set on cancer cachexia patients (setting [5]), the QOL result is listed as “improvement of QOL” and the weight gain entry is on record as “contribute to weight gain”. Besides, in the data set with ghrelin receptor, the ghrelin receptor activity entry is “ghrelin receptor agonist”.

B1: ActRIIB: activin receptor type IIB; binds to both BMP9 and BMP10 (protein, UniProt Q13705 19-512, looked up)
Activin receptor type-2B: SGRGEAETRECIYYNANWELERTNQSGLERCEGEQDKRLHCYASWRNSSGTIELVKKGCWLDDFNCYDRQECVATEENPQVYFCCCEGNFCNERFTHLPEAGGPEVTYEPPPTAPTLLTVLAYSLLPIGGLSLIVLLAFWMYRHRKPPYGHVDIHEDPGPPPPSPLVGLKPLQLLEIKARGRFGCVWKAQLMNDFVAVKIFPLQDKQSWQSEREIFSTPGMKHENLLQFIAAEKRGSNLEVELWLITAFHDKGSLTDYLKGNIITWNELCHVAETMSRGLSYLHEDVPWCRGEGHKPSIAHRDFKSKNVLLKSDLTAVLADFGLAVRFEPGKPPGDTHGQVGTRRYMAPEVLEGAINFQRDAFLRIDMYAMGLVLWELVSRCKAADGPVDEYMLPFEEEIGQHPSLEELQEVVVHKKMRPTIKDHWLKHPGLAQLCVTIEECWDHDAEARLSAGCVEERVSLIRRSVNGTTSDCLVSLVTSVTNVDLPPKESSI
Consider B1, for which the vascular side-effects entry with vascular function is recorded as “vascular side‐effects”.
